Laboratory results taken from ChEMBL document CHEMBL3994622, “Design and synthesis of new RAF kinase-inhibiting antiproliferative quinoline derivatives. Part 2: Diarylurea derivatives” (Eur J Med Chem, 2017).

How the values were obtained:
HOP-92 = assay: Growth inhibition of human HOP92 cells incubated for 48 hrs by sulforhodamine B assay; assay type: functional; details: HOP-92, 48 h
HCT-116 = assay: Growth inhibition of human HCT116 cells incubated for 48 hrs by sulforhodamine B assay; assay type: functional; details: HCT-116, 48 h
A549 = assay: Growth inhibition of human A549/ATCC cells incubated for 48 hrs by sulforhodamine B assay; assay type: functional; details: A549, 48 h
ACHN = assay: Growth inhibition of human ACHN cells incubated for 48 hrs by sulforhodamine B assay; assay type: functional
HCT-15 = assay: Growth inhibition of human HCT15 cells incubated for 48 hrs by sulforhodamine B assay; assay type: functional; details: HCT-15, 48 h
NCI-H522 = assay: Growth inhibition of human NCI-H522 cells incubated for 48 hrs by sulforhodamine B assay; assay type: functional; details: NCI-H522, 48 h
OVCAR-8 = assay: Growth inhibition of human OVCAR8 cells incubated for 48 hrs by sulforhodamine B assay; assay type: functional; details: OVCAR-8, 48 h
MDA-MB-435 = assay: Growth inhibition of human MDA-MB-435 cells incubated for 48 hrs by sulforhodamine B assay; assay type: functional; details: MDA-MB-435, 48 h
OVCAR-5 = assay: Growth inhibition of human OVCAR5 cells incubated for 48 hrs by sulforhodamine B assay; assay type: functional; details: OVCAR-5, 48 h
RXF 393 = assay: Growth inhibition of human RXF393 cells incubated for 48 hrs by sulforhodamine B assay; assay type: functional; details: RXF 393, 48 h
RPMI-8226 = assay: Growth inhibition of human RPMI8226 cells incubated for 48 hrs by sulforhodamine B assay; assay type: functional; details: RPMI-8226, 48 h
SK-MEL-28 = assay: Growth inhibition of human SK-MEL-28 cells incubated for 48 hrs by sulforhodamine B assay; assay type: functional; details: SK-MEL-28, 48 h
MCF7 = assay: Growth inhibition of human MCF7 cells incubated for 48 hrs by sulforhodamine B assay; assay type: functional; details: MCF7, 48 h
CCRF-CEM = assay: Growth inhibition of human CCRF-CEM cells incubated for 48 hrs by sulforhodamine B assay; assay type: functional
NCI-H322M = assay: Growth inhibition of human NCI-H322M cells incubated for 48 hrs by sulforhodamine B assay; assay type: functional
SK-OV-3 = assay: Growth inhibition of human SKOV3 cells incubated for 48 hrs by sulforhodamine B assay; assay type: functional; details: SK-OV-3, 48 h
[1] = molecular target: RAF proto-oncogene serine/threonine-protein kinase (Homo sapiens, UniProt P04049); assay: Inhibition of human c-RAF at 10 uM using MEK1 as substrate in presence of [33P]ATP by Hotspot assay relative to control
Chain of RAF proto-oncogene serine/threonine-protein kinase (P04049 whole entry): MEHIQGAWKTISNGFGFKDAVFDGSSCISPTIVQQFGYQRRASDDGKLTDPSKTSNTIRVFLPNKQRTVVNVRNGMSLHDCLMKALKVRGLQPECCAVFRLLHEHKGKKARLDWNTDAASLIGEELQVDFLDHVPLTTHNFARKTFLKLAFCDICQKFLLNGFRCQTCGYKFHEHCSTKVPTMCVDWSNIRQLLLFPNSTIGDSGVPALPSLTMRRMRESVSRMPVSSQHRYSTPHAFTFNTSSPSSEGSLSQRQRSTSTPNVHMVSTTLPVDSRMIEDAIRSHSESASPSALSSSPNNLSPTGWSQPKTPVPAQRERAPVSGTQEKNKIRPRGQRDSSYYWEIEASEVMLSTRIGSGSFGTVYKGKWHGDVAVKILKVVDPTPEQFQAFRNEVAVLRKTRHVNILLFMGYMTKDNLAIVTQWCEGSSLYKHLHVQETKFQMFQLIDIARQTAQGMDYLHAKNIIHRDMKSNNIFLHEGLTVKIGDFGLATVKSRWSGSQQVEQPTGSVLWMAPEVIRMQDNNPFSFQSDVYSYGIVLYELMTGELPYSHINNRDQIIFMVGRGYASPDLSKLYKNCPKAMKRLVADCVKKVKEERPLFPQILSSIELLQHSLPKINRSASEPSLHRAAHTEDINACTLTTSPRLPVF

SK-MEL-2 = assay: Growth inhibition of human SK-MEL-2 cells incubated for 48 hrs by sulforhodamine B assay; assay type: functional; details: SK-MEL-2, 48 h
NCI/ADR-RES = assay: Growth inhibition of human NCI/ADR-RES cells incubated for 48 hrs by sulforhodamine B assay; assay type: functional
UACC-62 = assay: Growth inhibition of human UACC62 cells incubated for 48 hrs by sulforhodamine B assay; assay type: functional; details: UACC-62, 48 h
SF-268 = assay: Growth inhibition of human SF268 cells incubated for 48 hrs by sulforhodamine B assay; assay type: functional; details: SF-268, 48 h
NCI-H23 = assay: Growth inhibition of human NCI-H23 cells incubated for 48 hrs by sulforhodamine B assay; assay type: functional; details: NCI-H23, 48 h
SK-MEL-5 = assay: Growth inhibition of human SK-MEL-5 cells incubated for 48 hrs by sulforhodamine B assay; assay type: functional; details: SK-MEL-5, 48 h
HOP-62 = assay: Growth inhibition of human HOP62 cells incubated for 48 hrs by sulforhodamine B assay; assay type: functional; details: HOP-62, 48 h
NCI-H226 = assay: Growth inhibition of human NCI-H226 cells incubated for 48 hrs by sulforhodamine B assay; assay type: functional; details: NCI-H226, 48 h
BT-549 = assay: Growth inhibition of human BT549 cells incubated for 48 hrs by sulforhodamine B assay; assay type: functional; details: BT-549, 48 h
SR = assay: Growth inhibition of human SR cells incubated for 48 hrs by sulforhodamine B assay; assay type: functional
SNB-75 = assay: Growth inhibition of human SNB75 cells incubated for 48 hrs by sulforhodamine B assay; assay type: functional; details: SNB-75, 48 h
K562 = assay: Growth inhibition of human K562 cells incubated for 48 hrs by sulforhodamine B assay; assay type: functional; details: K562, 48 h
MOLT-4 = assay: Growth inhibition of human MOLT4 cells incubated for 48 hrs by sulforhodamine B assay; assay type: functional; details: MOLT-4, 48 h
Malme-3M = assay: Growth inhibition of human MALME-3M cells incubated for 48 hrs by sulforhodamine B assay; assay type: functional
SN12C = assay: Growth inhibition of human SN12C cells incubated for 48 hrs by sulforhodamine B assay; assay type: functional
[2] = read-out: LC50 (the source's name)

**Q.** For `COc1cc2cc(Oc3ccc(NC(=O)Nc4ccc(Cl)c(C(F)(F)F)c4)cc3)c(C)nc2cc1OC`, which GI50 (HOP-92) is on record?
**A.** 0.682 µM

**Q.** And the LC50 (HOP-92)?
**A.** 10.3 µM

**Q.** What about the TGI (HOP-92) of the same compound?
**A.** 2.05 µM

**Q.** What about the GI50 (HCT-116) of the same compound?
**A.** 0.994 µM

**Q.** What about the LC50 (50% lethal concentration) (HCT-116) of the same compound?
**A.** 14 µM

**Q.** And the TGI (HCT-116)?
**A.** 3.84 µM

**Q.** And the GI50 (A549)?
**A.** 1 µM

**Q.** What about the TGI (A549) of the same compound?
**A.** 4.16 µM

**Q.** What about the CC50 (A549; [2]) of the same compound?
**A.** 15.1 µM

**Q.** And the GI50 (ACHN)?
**A.** 1.07 µM

**Q.** What about the TGI (ACHN) of the same compound?
**A.** 4 µM

**Q.** What about the CC50 (ACHN; [2]) of the same compound?
**A.** 13.7 µM

**Q.** What about the GI50 (HCT-15) of the same compound?
**A.** 1.15 µM

**Q.** What about the LC50 (lethal concentration, 50% net cell kill) (HCT-15) of the same compound?
**A.** 16.9 µM

**Q.** And the TGI (HCT-15)?
**A.** 4.86 µM

**Q.** And the GI50 (NCI-H522)?
**A.** 0.773 µM

**Q.** And the TGI (NCI-H522)?
**A.** 2.65 µM

**Q.** And the CC50 (NCI-H522; [2])?
**A.** 12.2 µM

**Q.** What about the GI50 (OVCAR-8) of the same compound?
**A.** 1.04 µM

**Q.** And the TGI (OVCAR-8)?
**A.** 4.55 µM

**Q.** And the CC50 (OVCAR-8; [2])?
**A.** > 32.5 µM

**Q.** And the GI50 (MDA-MB-435)?
**A.** 1.03 µM

**Q.** And the TGI (MDA-MB-435)?
**A.** 4.71 µM

**Q.** What about the CC50 (MDA-MB-435; [2]) of the same compound?
**A.** > 32.5 µM

**Q.** What about the GI50 (OVCAR-5) of the same compound?
**A.** 1.93 µM

**Q.** What about the TGI (OVCAR-5) of the same compound?
**A.** 6.22 µM

**Q.** What about the CC50 (OVCAR-5; [2]) of the same compound?
**A.** 17.4 µM

**Q.** And the GI50 (RXF 393)?
**A.** 1.33 µM

**Q.** And the TGI (RXF 393)?
**A.** 4.21 µM

**Q.** And the CC50 (RXF 393; [2])?
**A.** 15 µM

**Q.** And the GI50 (RPMI-8226)?
**A.** 0.636 to 0.64 µM

**Q.** And the LC50 (lethal concentration, 50% cell kill) (RPMI-8226)?
**A.** > 32.5 µM

**Q.** And the TGI (RPMI-8226)?
**A.** 1.65 µM

**Q.** What about the GI50 (SK-MEL-28) of the same compound?
**A.** 1.41 µM

**Q.** And the TGI (SK-MEL-28)?
**A.** 5.45 µM

**Q.** And the CC50 (SK-MEL-28; [2])?
**A.** 14.4 µM

**Q.** And the GI50 (MCF7)?
**A.** 1.08 µM

**Q.** What about the TGI (MCF7) of the same compound?
**A.** 3.88 µM

**Q.** What about the CC50 (MCF7; [2]) of the same compound?
**A.** 15 µM

**Q.** What about the GI50 (CCRF-CEM) of the same compound?
**A.** 1.01 µM

**Q.** And the TGI (CCRF-CEM)?
**A.** 3.09 µM

**Q.** What about the CC50 (CCRF-CEM; [2]) of the same compound?
**A.** > 32.5 µM

**Q.** And the GI50 (NCI-H322M)?
**A.** 2.05 µM

**Q.** What about the TGI (NCI-H322M) of the same compound?
**A.** 6.28 µM

**Q.** What about the CC50 (NCI-H322M; [2]) of the same compound?
**A.** 16.3 µM

**Q.** What about the GI50 (SK-OV-3) of the same compound?
**A.** 1.35 µM

**Q.** What about the TGI (SK-OV-3) of the same compound?
**A.** 5.79 µM

**Q.** And the CC50 (SK-OV-3; [2])?
**A.** 31.5 µM

**Q.** What about the inhibition [1] of the same compound?
**A.** 99.7%

**Q.** And the GI50 (SK-MEL-2)?
**A.** 0.799 to 0.8 µM

**Q.** And the TGI (SK-MEL-2)?
**A.** 1.94 µM

**Q.** And the CC50 (SK-MEL-2; [2])?
**A.** 11 µM

**Q.** What about the GI50 (NCI/ADR-RES) of the same compound?
**A.** 1.06 µM

**Q.** What about the TGI (NCI/ADR-RES) of the same compound?
**A.** 4.91 µM

**Q.** What about the CC50 (NCI/ADR-RES; [2]) of the same compound?
**A.** > 32.5 µM

**Q.** And the GI50 (UACC-62)?
**A.** 1.24 µM

**Q.** And the TGI (UACC-62)?
**A.** 6.01 µM

**Q.** What about the CC50 (UACC-62; [2]) of the same compound?
**A.** 18.4 µM

**Q.** What about the GI50 (SF-268) of the same compound?
**A.** 1.55 µM

**Q.** And the LC50 (50% lethal concentration) (SF-268)?
**A.** 22.6 µM

**Q.** What about the TGI (SF-268) of the same compound?
**A.** 6.34 µM

**Q.** And the GI50 (NCI-H23)?
**A.** 0.991 µM

**Q.** And the TGI (NCI-H23)?
**A.** 3.79 µM

**Q.** And the CC50 (NCI-H23; [2])?
**A.** 15.8 µM

**Q.** What about the GI50 (SK-MEL-5) of the same compound?
**A.** 0.793 µM

**Q.** What about the TGI (SK-MEL-5) of the same compound?
**A.** 2.17 µM

**Q.** And the CC50 (SK-MEL-5; [2])?
**A.** 8.01 µM

**Q.** What about the GI50 (HOP-62) of the same compound?
**A.** 1.3 µM

**Q.** And the TGI (HOP-62)?
**A.** 5.32 µM

**Q.** And the CC50 (HOP-62; [2])?
**A.** 13.7 µM

**Q.** And the GI50 (NCI-H226)?
**A.** 1.27 µM

**Q.** What about the TGI (NCI-H226) of the same compound?
**A.** 5.01 µM

**Q.** What about the CC50 (NCI-H226; [2]) of the same compound?
**A.** > 32.5 µM

**Q.** And the GI50 (BT-549)?
**A.** 0.981 µM

**Q.** And the TGI (BT-549)?
**A.** 4.59 µM

**Q.** What about the CC50 (BT-549; [2]) of the same compound?
**A.** 20.5 µM

**Q.** What about the GI50 (SR) of the same compound?
**A.** 0.831 µM

**Q.** And the TGI (SR)?
**A.** 2.65 µM

**Q.** And the CC50 (SR; [2])?
**A.** > 32.5 µM

**Q.** What about the GI50 (SNB-75) of the same compound?
**A.** 1.03 µM

**Q.** What about the TGI (SNB-75) of the same compound?
**A.** 4.9 µM

**Q.** What about the CC50 (SNB-75; [2]) of the same compound?
**A.** > 32.5 µM

**Q.** And the GI50 (K562)?
**A.** 1.11 µM

**Q.** What about the LC50 (concentration killing 50% of cells) (K562) of the same compound?
**A.** 23.6 µM

**Q.** And the TGI (K562)?
**A.** 4.81 µM

**Q.** And the GI50 (MOLT-4)?
**A.** 1.14 µM

**Q.** What about the LC50 (MOLT-4) of the same compound?
**A.** > 32.5 µM

**Q.** And the TGI (MOLT-4)?
**A.** 5.49 µM

**Q.** What about the GI50 (Malme-3M) of the same compound?
**A.** 1.33 µM

**Q.** What about the TGI (Malme-3M) of the same compound?
**A.** 5.71 µM

**Q.** What about the CC50 (Malme-3M; [2]) of the same compound?
**A.** > 32.5 µM

**Q.** What about the GI50 (SN12C) of the same compound?
**A.** 1.31 µM

**Q.** And the TGI (SN12C)?
**A.** 6.12 µM

**Q.** And the CC50 (SN12C; [2])?
**A.** 26.8 µM
